From patent US12622919B2, “Methods for treating hypervirulent Klebsiella pneumoniae infection” (priority 2023, dated 2026)

Legend:
[1] = test system: hvKp strain 17ZR101; experiment: Mouse sepsis model, ~10^4 CFU 17ZR101, drug at 3 hpi: survival, body weight, spleen weight; assay type: in vivo, C57BL6 mice
Protocol: All animal experiments were approved by the Animal Ethics Committee of the City University of Hong Kong and followed the guidelines of the Institutional Laboratory Animal Research Unit. Six- to eight-weeks-old animals of both sexes were used in this study. For the sepsis model, mice were intravenously injected with ˜10^4 colony forming units (CFU) of the test stain resuspended in 200 μL PBS. For the pneumonia model, mice were anesthetized by inhaling isoflurane, and ˜10^6 CFU of the strain resuspended 10 μL PBS were dripped into the mouse's nasal cavity. The heads of the mice were hold upright for 30 s afterwards.
(§1) In ASA, NPXS, CTX, AzA, CsA, DXMS, and F-ara treatment experiment, mice challenged by 17ZR101 were given intraperitoneally 100 mg kg^−1 ASA, 50 mg kg^−1 NPXS, 150 mg kg^−1 CTX, 200 mg kg^−1 AzA, 20 mg kg^−1 CsA, 10 mg kg^−1 DXMS and 40 mg kg^−1 F-ara at 3 hpi, another group treated with an equal volume of PBS or 200 μL of corn oil solution was included as a control group. In ASA and CAZ/AVI combination treatment experiment, mice were given intraperitoneally 100 mg kg^−1 ASA plus 8 mg kg^−1 CAZ and 4 mg kg^−1 AVI or 8 mg kg^−1 CAZ and 4 mg kg^−1 AVI at 1 hpi. The health status and weight of all mice were observed and recorded.

[2] = test system: IL-6; experiment: Serum IL-6 by ELISA in 17ZR101-infected mice; assay type: in vivo, C57BL6 mice; conditions: 17ZR101-infected mice treated with ASA; untreated 587.965
Protocol: (§2) The serum level of IL-6 of the test animals was measured by using the IL-6 Mouse Uncoated ELISA Kit (Thermo fisher scientific, 88-7064-88), IL-1β level by IL-1 beta Mouse Uncoated ELISA Kit (Thermo fisher scientific, 88-7013-86) and that of IFN-γ was measured by using the IFN gamma Mouse Uncoated ELISA Kit (Thermo fisher scientific, 88-7314-88) according to instructions of the manufacturer.
as §1

[3] = test system: Stat1 and STAT1-regulated chemokines, M1 markers, Cox-1, Cox-2; experiment: RNA-Seq / qPCR of lung cells of 17ZR101-infected mice; assay type: in vivo, C57BL6 mice
Protocol: RNA was extracted from lung samples by homogenization in TRIzol reagent (15596026, Thermo Fisher Scientific), followed by chloroform extraction and isopropanol precipitation. The extracted RNA was reverse-transcribed into cDNA by using a SuperScript® III First-Strand Synthesis SuperMix kit (11752050, ThermoFisher Scientific). Real-time quantitative PCR was performed by using a QuantStudio™ 7 Pro Real-Time PCR System, following the manufacturer's instructions. cDNA samples were tested in duplicates, and the relative amount of mRNA in different samples (Gapdh, Il1b, Ifng, Cxcl2, Cxcl10, Ifna, Ifnb, Ifnar1, Stat1, Hmgb1, Il-6, Myd88, and Tlr4) was determined by the comparative threshold cycle (ΔΔCT) method, using the glyceraldehyde-3-phosphate dehydrogenase gene (Gapdh) for normalization.
Total RNA was extracted from lung samples by homogenization in TRIzol reagent, followed by chloroform extraction and isopropanol precipitation. DNA was removed by DNase treatment (TURBO DNA-Free™ Kit). RNA samples were sent to Novogene (HK) Company Limited for sequencing. Routine procedures of mRNA purification and library generation were performed by Novogene. Sequencing reads alignment was performed by using HISAT2. Count aligned reads and quantification were calculated based on exon regions using FeatureCounts. […] Gene Set Enrichment Analysis was performed for gene ontology enrichment analysis. The raw RNA-seq data has been deposited in NCBI database under the accession number PRJNA851242.
as §1

[4] = test system: F4/80+ cells (IMs), neutrophils in lungs; experiment: Flow cytometry of lung cells, 10^4 CFU 17ZR101 sepsis model; assay type: in vivo, C57BL6 mice; conditions: ASA at 3 hpi
Protocol: (§3) Cells collected from different tissues of the test animals were subjected to flow cytometry analysis as described previously^4. Cells from spleens were obtained by mashing the organ through a 70-μm cell strainer and collected in a tube containing RPMI 1640 medium supplemented with 5% fetal bovine serum. To prepare lung cells, lung tissues were excised and incubated in HBSS containing 1×HEPES and Collagenase type I. The tissue fragments were forced through a 70-μm strainer as described above. Red blood cells were lysed with ACK lysing buffer.
Dead cells were excluded from the analysis by propidium iodide (Sigma-Aldrich Corporation, P4170-1G) or ghost Dye™ violet 510 (Tonbo Biosciences, 13-0870-T100) staining in all flow cytometry experiments. Fluorescently labeled mAbs against mouse CD45, CD11b, CD206, CD80, Ly6G, CD11c, SiglecF, Ly6C and appropriate isotype controls were obtained from Biolegend. For intracellular cytokine measurement, cells were incubated with Cell Activation Cocktail (BioLegend, 423303) at 37° C. in the dark for 4 h. Anti-IFN-γ-PE antibody (eBioscience, 12-7177-81) was used to determine intracellular expression of IFN-γ. For p-STAT1 measurement, the cells were fixed with IC fixation buffer (eBioscience, 00-8222-49) for 30 min and then suspended in 1 mL of methanol to permeabilize the cell membrane, left to stand for 10 min on ice. At the time of p-STAT1 measurement, the cell suspensions were washed with FACS buffer and then stained with PE-anti-STAT1 Phospho antibody (Biolegend, 686404). […] The acquired data were analyzed by the FlowJo software (Version 10.0.7, Treestar, Palo Alto, CA).
as §1, with “In ASA and CAZ/AVI combination treatment experiment, mice were given intraperitoneally 100 mg kg^−1 ASA plus 8 mg kg^−1 CAZ and 4 mg kg^−1 AVI or 8 mg kg^−1 CAZ and 4 mg kg^−1 AVI at 1 hpi.” left out

[5] = test system: F4/80+ cells and Ly6G+ cells in lungs; experiment: Flow cytometry of lung cells at 4 hpi, 10^7 CFU hvKp; assay type: in vivo, C57BL6 mice
Protocol: as §3
Dead cells were excluded from the analysis by propidium iodide (Sigma-Aldrich Corporation, P4170-1G) or ghost Dye™ violet 510 (Tonbo Biosciences, 13-0870-T100) staining in all flow cytometry experiments. […] The acquired data were analyzed by the FlowJo software (Version 10.0.7, Treestar, Palo Alto, CA).
as §1, with “In ASA and CAZ/AVI combination treatment experiment, mice were given intraperitoneally 100 mg kg^−1 ASA plus 8 mg kg^−1 CAZ and 4 mg kg^−1 AVI or 8 mg kg^−1 CAZ and 4 mg kg^−1 AVI at 1 hpi.” left out

[6] = test system: hvKp strain 17ZR101; experiment: Bacteria burden in organs, 10^7 CFU hvKp; assay type: in vivo, C57BL6 mice; conditions: 4 hpi
Protocol: Ten-fold dilutions of tissue homogenate were prepared and spread onto MacConkey agar plates containing 2 μg mL^−1 cefotaxime to determine the bacterial load in different organs of the infected animals. To determine the number of intracellular bacteria, cells prepared for flow cytometry from lungs and spleens were collected and then incubated with 300 μg mL^−1 amikacin to kill the extracellular bacteria. The number of total and intracellular bacteria was counted and presented as the number of CFU g^−1 tissue.
as §1

[7] = test system: K. pneumoniae strain 17ZR101 (K2 hvKp clinical strain); experiment: Antibiotic susceptibility test (microdilution), strain 17ZR101; assay type: cell-based, Klebsiella pneumoniae; conditions: CLSI
Protocol: (§4) The antimicrobial susceptibility of the two Klebsiella strains was determined by the microdilution method according to the guidelines recommended by the Clinical and Laboratory Standards Institute^2. Escherichia coli strain ATCC 25922 was included as a quality control strain. All tests were performed in duplicate, and each test included three biological replicates.

[8] = test system: K. pneumoniae strain HKU1 (clinical cKp strain); experiment: Antibiotic susceptibility test (microdilution), strain HKU1; assay type: cell-based, Klebsiella pneumoniae; conditions: CLSI
Protocol: as §4

[9] = test system: IFN-γ; experiment: Serum IFN-γ by ELISA in 17ZR101-infected mice; assay type: in vivo, C57BL6 mice; conditions: 17ZR101-infected mice treated with F-ara; untreated 2742.872
Protocol: as §2, §1

[10] = RNA-Seq lung cells, 17ZR101+ASA vs 17ZR101, unit not given

Compound: CC(=O)Oc1ccccc1C(=O)O [ASA, acetylsalicylic acid]
- spleen/body weight ratio ([1]; 12 hpi, ASA 100 mg kg^−1 i.p. at 3 hpi, untreated 0.863%): 0.495%
- bodyweight loss ([1]; 12 hpi, ASA 100 mg kg^−1 i.p. at 3 hpi, untreated 7.206%): 2.076%
- mice protected (survival) ([1]; 17ZR101 infection, 100 mg kg^−1 ASA i.p. at 3 hpi, at 48 hpi): 100%
- serum IL-6 production [2]: 57.964 pg/mL
- expression level of M1 macrophage markers ([3]; RNA-Seq and qPCR, lung cells, ASA): decrease in expression level of M1 macrophage markers
- Cxcl9 expression change [3, 10]: −2.118
- Cxcl10 expression change [3, 10]: −3.590
- Cxcl11 expression change [3, 10]: −2.098
- Stat1 expression change ([3]; RNA-Seq lung cells, 17ZR101+ASA vs 17ZR101, unit not printed here (Log 2 fold change)): −1.056
- Cox-1 and Cox-2 expression at the mRNA level ([3]; upon ASA administration): no significant difference
- F4/80+ cells infiltration into the lungs [4]: suppressed F4/80^+ cells infiltration into the lungs
- levels of neutrophils in the lungs [4]: slight decrease
- M1 macrophage polarization ([4]; CD80 MFI): able to inhibit M1 macrophage polarization
- F4/80+ cells infiltration in lungs [5]: could suppress F4/80^+ cells infiltration
- Ly6G+ cells in lungs [5]: not significantly
- bacteria burden in various organs [6]: without contributing to bacteria clearance

Compound: NCC[C@H](O)C(=O)N[C@@H]1C[C@H](N)[C@@H](O[C@H]2O[C@H](CN)[C@@H](O)[C@H](O)[C@H]2O)[C@H](O)[C@H]1O[C@H]1O[C@H](CO)[C@@H](O)[C@H](N)[C@H]1O [amikacin]
- antimicrobial susceptibility [7]: susceptible
- antimicrobial susceptibility [8]: susceptible

Compound: CN(C)c1cc(NC(=O)CNC(C)(C)C)c(O)c2c1C[C@H]1C[C@H]3[C@H](N(C)C)C(O)=C(C(N)=O)C(=O)[C@@]3(O)C(O)=C1C2=O [tigecycline]
- antimicrobial susceptibility [7]: susceptible
- antimicrobial susceptibility [8]: susceptible

Compound: Nc1nc(F)nc2c1ncn2[C@@H]1O[C@H](CO)[C@@H](O)[C@@H]1O [F-ara, Fludarabine]
- mice protected from death ([1]; 17ZR101 infection, 40 mg kg^−1 F-ara i.p. at 3 hpi, within 48 h): 50%
- serum IFN-γ level [9]: 445.133 pg/mL

Compound: O=P1(N(CCCl)CCCl)NCCCO1 (stereo not shown) [cyclophosphamide]
- protective effect (survival) ([1]; 17ZR101 infection, 150 mg kg^−1 CTX i.p. at 3 hpi): did not exhibit any protective effect

Compound: polymyxin B
- antimicrobial susceptibility [7]: susceptible
- antimicrobial susceptibility [8]: susceptible

Compound: C[C@@H](O)[C@H]1C(=O)N2C(C(=O)O)=C(S[C@@H]3CN[C@H](C(=O)N(C)C)C3)[C@H](C)[C@H]12 [meropenem]
- antimicrobial susceptibility [7]: resistant
- antimicrobial susceptibility [8]: resistant

Compound: CC(C)(O/N=C(\C(=O)N[C@@H]1C(=O)N2C(C(=O)[O-])=C(C[n+]3ccccc3)CS[C@H]12)c1csc(N)n1)C(=O)O [ceftazidime]
- antimicrobial susceptibility [7]: resistant
- antimicrobial susceptibility [8]: resistant

Compound: CO/N=C(\C(=O)N[C@@H]1C(=O)N2C(C(=O)O)=C(COC(C)=O)CS[C@H]12)c1csc(N)n1 [cefotaxime]
- antimicrobial susceptibility [7]: resistant
- antimicrobial susceptibility [8]: resistant
